Measured values reported in patent US20250136558A1, “PYRAZINE COMPOUNDS AS IRREVERSIBLE INHIBITORS OF FLT3” (BIOMEA FUSION, INC., priority 2021, published 2025).

Legend:
Type in all cases: cell-based
MOLM-13 = test: Proliferation inhibition (CellTiter-Glo) in MOLM-13 cells; details: Homo sapiens, 96 h, MOLM-13 AML cells, heterozygous FLT3-ITD, IC50 (4 days)
From the text: (§1) The Proliferation Inhibitory Effect was Investigated in Human AML Cell Lines MOLM-13 (AddexBio: C0003003) [REF: Pubmed: 9305600] and MV-4-11 (ATCC: CRL-9591) [REF PMID: 3496132], and CML cell line […] (ATCC: CRL-3343) [REF PMID: 163658]. Molm-13 is heterozygous for FLT3-ITD mutation, while MV4-11 is homozygous for FLT3-ITD [PMID: 12529668]. […] Cells were maintained in RPMI-1640 medium (ThermoFisher catalog no. 61870036) supplemented with 10% of Heat Inactivated FBS (ThermoFisher catalog no.A31605) and 1% Pen-Strep (Thermofisher catalog no. 10378016) and cultured at 37° C. in a humidified incubator with 5% CO2. Cell lines were […], and the cells were maintained in a range 70%-80% confluency.
(§2) ATP is present in all metabolically active cells and is considered as a marker for cell viability and proliferation. Metabolic cell activity was determined using the CellTiter-Glo kit (Promega catalog no. G7572), an ATP monitoring system based on the production of luminescence by the reaction of ATP with added UltraGlo® recombinant luciferase (Kawano et al., 2016, PLOS One, 8; 11(7):e0158888), according to the supplier's experimental recommendations. The assay was based on a 96 well plate format.
(§3) Test compounds were dissolved at 10 mM in DMSO (Sigma catalog no. D8418; purity 299.9%) and stored at −20° C. Eight concentrations of test compound were assessed in duplicate in an individual test occasion in parallel in the selected cell lines. Gilteratinib and FF-10101 were used as reference compounds and tested in duplicate at eight concentrations. 100% of proliferation is represented by the untreated cells (0.2% DMSO).
(§4) On the day of the experiment (TO), cells were quantified with the cell viability analyser NucleoCounter (Chemometec NC-200) and diluted with fresh medium to obtain the cell density of about 10,000 cells per 200 μL medium. 200 μL of cell suspension were added into wells in the 96 well plate.
(§5) After 2 hours from seeding cells, compounds were added using a D300e compound dispenser (Life Sciences Tecan D300) at desired concentrations with shaking between each compound dispensed. Cell plates containing 200 μL/well suspension were incubated at 37° C. in a humidified incubator with […].
(§6) […] Contents were mixed for 5 min on an orbital shaker to induce cell lysis, and then incubated at room temperature for an additional 10 min in the dark to stabilize the luminescent signal. Luminescence was read by using a GloMax GM300 plate reader (Promega) using the luminescence for 96 well plate standard protocol.
(§7) Results were analysed by GraphPad (Prism) and IC50 values were calculated by non-linear regression using four parameter-logistic equation.

K-562 = test: Proliferation inhibition (CellTiter-Glo) in K-562 cells; details: Homo sapiens, K562, 96 h, K-562 CML cells, no FLT3 mutations, IC50 (4 days)
From the text: as §1, §2, §3, §4, §5, §6, §7

MV-4-11 = test: Proliferation inhibition (CellTiter-Glo) in MV-4-11 cells; details: Homo sapiens, MV4-11, 96 h, MV-4-11 AML cells, homozygous FLT3-ITD, IC50 (4 days)
From the text: as §1, §2, §3, §4, §5, §6, §7

| IC50 (MOLM-13) | IC50 (K-562) | IC50 (MV-4-11) | SMILES |
| --- | --- | --- | --- |
| 100 to 500 nM | > 500 nM | 100 to 500 nM | C=CC(=O)NCCCOc1cccc(Nc2nc(NC3CCOCC3)c(CC)nc2C(N)=O)c1 [Compound 3, 3-((3-(3-Acrylamidopropoxy)phenyl)amino)-6-ethyl-5-((tetrahydro-2H-pyran-4-yl)amino)pyrazine-2-carboxamide] |
| 100 to 500 nM | > 500 nM | 100 to 500 nM | C=CS(=O)(=O)NCCCOc1cccc(Nc2nc(NC3CCOCC3)c(CC)nc2C(N)=O)c1 [Compound 4, 6-Ethyl-5-((tetrahydro-2H-pyran-4-yl)amino)-3-((3-(3-(vinylsulfonamido)propoxy)phenyl)-amino)pyrazine-2-carboxamide] |
| 1 to 10 nM | 100 to 500 nM | 10 to 100 nM | C#CC(=O)NCCCOc1cccc(Nc2nc(NC3CCOCC3)c(CC)nc2C(N)=O)c1 [Compound 7, 6-Ethyl-3-((3-(3-propiolamidopropoxy)phenyl)amino)-5-((tetrahydro-2H-pyran-4-yl)amino)pyrazine-2-carboxamide] |
| 100 to 500 nM | > 500 nM | > 500 nM | CC#CC(=O)NCCCOc1cccc(Nc2nc(NC3CCOCC3)c(CC)nc2C(N)=O)c1 [Compound 8, 3-((3-(3-(But-2-ynamido)propoxy)phenyl)amino)-6-ethyl-5-((tetrahydro-2H-pyran-4-yl)amino)pyrazine-2-carboxamide] |
| 10 to 100 nM | > 500 nM | 10 to 100 nM | C=CC(=O)NCC#Cc1cccc(Nc2nc(NC3CCOCC3)c(CC)nc2C(N)=O)c1 [Compound 9, 3-((3-(3-Acrylamidoprop-1-yn-1-yl)phenyl)amino)-6-ethyl-5-((tetrahydro-2H-pyran-4-yl)amino)pyrazine-2-carboxamide] |
| 100 to 500 nM | > 500 nM | 100 to 500 nM | C=CS(=O)(=O)NCC#Cc1cccc(Nc2nc(NC3CCOCC3)c(CC)nc2C(N)=O)c1 [Compound 10, 6-Ethyl-5-((tetrahydro-2H-pyran-4-yl)amino)-3-((3-(3-(vinylsulfonamido)prop-1-yn-1-yl)phenyl)amino)pyrazine-2-carboxamide] |
| 10 to 100 nM | > 500 nM | 10 to 100 nM | C=CC(=O)NCCC#Cc1cccc(Nc2nc(NC3CCOCC3)c(CC)nc2C(N)=O)c1 [Compound 11, 3-((3-(4-Acrylamidobut-1-yn-1-yl)phenyl)amino)-6-ethyl-5-((tetrahydro-2H-pyran-4-yl)amino)pyrazine-2-carboxamide] |
| > 500 nM | > 500 nM | 100 to 500 nM | C=CS(=O)(=O)NCCC#Cc1cccc(Nc2nc(NC3CCOCC3)c(CC)nc2C(N)=O)c1 [Compound 12, 6-ethyl-5-((Tetrahydro-2H-pyran-4-yl)amino)-3-((3-(4-(vinylsulfonamido)but-1-yn-1-yl)phenyl)amino)pyrazine-2-carboxamide] |
| 10 to 100 nM | 100 to 500 nM | 10 to 100 nM | C#CC(=O)NCC#Cc1cccc(Nc2nc(NC3CCOCC3)c(CC)nc2C(N)=O)c1 [Compound 13, 6-Ethyl-3-((3-(3-propiolamidoprop-1-yn-1-yl)phenyl)amino)-5-((tetrahydro-2H-pyran-4-yl)amino)pyrazine-2-carboxamide] |
| 10 to 100 nM | > 500 nM | 10 to 100 nM | CC#CC(=O)NCC#Cc1cccc(Nc2nc(NC3CCOCC3)c(CC)nc2C(N)=O)c1 [Compound 14, 3-((3-(3-(But-2-ynamido)prop-1-yn-1-yl)phenyl)amino)-6-ethyl-5-((tetrahydro-2H-pyran-4-yl)amino)pyrazine-2-carboxamide] |
| 10 to 100 nM | > 500 nM | 10 to 100 nM | C#CC(=O)NCCC#Cc1cccc(Nc2nc(NC3CCOCC3)c(CC)nc2C(N)=O)c1 [Compound 15, 6-Ethyl-3-((3-(4-propiolamidobut-1-yn-1-yl)phenyl)amino)-5-((tetrahydro-2H-pyran-4-yl)amino)pyrazine-2-carboxamide] |
| 100 to 500 nM | > 500 nM | 100 to 500 nM | CC#CC(=O)NCCC#Cc1cccc(Nc2nc(NC3CCOCC3)c(CC)nc2C(N)=O)c1 [Compound 16, 3-((3-(4-(But-2-ynamido)but-1-yn-1-yl)phenyl)amino)-6-ethyl-5-((tetrahydro-2H-pyran-4-yl)amino)pyrazine-2-carboxamide] |
| 1 to 10 nM | > 500 nM | < 1 nM | C=CC(=O)N(C)[C@@H](C)C(=O)NCC#Cc1cccc(Nc2nc(NC3CCOCC3)c(CC)nc2C(N)=O)c1 [Compound 17, (S)-6-Ethyl-3-((3-(3-(2-(N-methylacrylamido)propanamido)prop-1-yn-1-yl)phenyl)amino)-5-((tetrahydro-2H-pyran-4-yl)amino)pyrazine-2-carboxamide] |
| 1 to 10 nM | > 500 nM | < 1 nM | CCc1nc(C(N)=O)c(Nc2cccc(C#CCNC(=O)[C@H](C)N(C)C(=O)/C=C/CN(C)C)c2)nc1NC1CCOCC1 [Compound 18, (S,E)-3-((3-(3-(2-(4-(Dimethylamino)-N-methylbut-2-enamido)propanamido)prop-1-yn-1-yl)phenyl)amino)-6-ethyl-5-((tetrahydro-2H-pyran-4-yl)amino)pyrazine-2-carboxamide] |
| > 500 nM | > 500 nM | > 500 nM | C=CS(=O)(=O)N(C)[C@@H](C)C(=O)NCC#Cc1cccc(Nc2nc(NC3CCOCC3)c(CC)nc2C(N)=O)c1 [Compound 19, (S)-6-Ethyl-3-((3-(3-(2-(N-methylvinylsulfonamido)propanamido)prop-1-yn-1-yl)phenyl)amino)-5-((tetrahydro-2H-pyran-4-yl)amino)pyrazine-2-carboxamide] |
|  | > 500 nM |  | CCc1nc(C(N)=O)c(Nc2cncc(CCNC(=O)[C@H](C)N(C)C(=O)/C=C/CN(C)C)c2)nc1C1CC1 [Compound 306, (S,E)-5-cyclopropyl-3-((5-(2-(2-(4-(dimethylamino)-N-methylbut-2-enamido)propanamido)ethyl)pyridin-3-yl)amino)-6-ethylpyrazine-2-carboxamide] |
|  | > 500 nM |  | CCc1nc(C(N)=O)c(Nc2cccc(CCNC(=O)[C@H](C)N(C)C(=O)/C=C/CNC)c2)nc1N(C)C(C)C [Compound 307, (S,E)-6-ethyl-5-(isopropyl(methyl)amino)-3-((3-(2-(2-(N-methyl-4-(methylamino)but-2-enamido)propanamido)ethyl)phenyl)amino)pyrazine-2-carboxamide] |
|  | > 500 nM |  | Cc1cc(C(N)=O)c(Nc2cncc(CCNC(=O)[C@H](C)N(C)C(=O)/C=C/CN(C)C)c2)nc1C1CC1 [Compound 323, (S,E)-6-cyclopropyl-2-((5-(2-(2-(4-(dimethylamino)-N-methylbut-2 enamido)propanamido)ethyl)pyridin-3-yl)amino)-5-methylnicotinamide] |

| SMILES | IC50 (MOLM-13) | IC50 (K-562) | IC50 (MV-4-11) |
| --- | --- | --- | --- |
| C=CC(=O)NCCCCOc1cccc(Nc2nc(NC3CCOCC3)c(CC)nc2C(N)=O)c1 [Compound 1, 3-((3-(4-Acrylamidobutoxy)phenyl)amino)-6-ethyl-5-((tetrahydro-2H-pyran-4-yl)amino)pyrazine-2-carboxamide] | 100 to 500 nM | > 500 nM | 10 to 100 nM |
| C=CS(=O)(=O)NCCCCOc1cccc(Nc2nc(NC3CCOCC3)c(CC)nc2C(N)=O)c1 [Compound 2, 6-Ethyl-5-((tetrahydro-2H-pyran-4-yl)amino)-3-((3-(4-(vinylsulfonamido)butoxy)phenyl)amino)pyrazine-2-carboxamide] | 100 to 500 nM | > 500 nM | 100 to 500 nM |
| C#CC(=O)NCCCCOc1cccc(Nc2nc(NC3CCOCC3)c(CC)nc2C(N)=O)c1 [Compound 5, 6-Ethyl-3-((3-(4-propiolamidobutoxy)phenyl)amino)-5-((tetrahydro-2H-pyran-4-yl)amino)pyrazine-2-carboxamide] | 10 to 100 nM | > 500 nM | 10 to 100 nM |
| CC#CC(=O)NCCCCOc1cccc(Nc2nc(NC3CCOCC3)c(CC)nc2C(N)=O)c1 [Compound 6, 3-((3-(4-(But-2-ynamido)butoxy)phenyl)amino)-6-ethyl-5-((tetrahydro-2H-pyran-4-yl)amino)pyrazine-2-carboxamide] | 100 to 500 nM | > 500 nM | 100 to 500 nM |
